Data reported in ChEMBL document CHEMBL4765241, “Identification and Preclinical Pharmacology of ((1 R,3 S)-1-Amino-3-(( S)-6-(2-methoxyphenethyl)-5,6,7,8-tetrahydronaphthalen-2-yl)cyclopentyl)methanol (BMS-986166): A Differentiated Sphingosine-1-phosphate Receptor 1 (S1P) Modulator Advanced into Clinical Trials” (J Med Chem, 2019).
Blank lines part the entries; values can stand above or below the compound they belong to. The source made the active and inactive calls. No cut-off for these calls is given here.

How the values were obtained:
[1] = target: Sphingosine 1-phosphate receptor 3 (Homo sapiens, UniProt Q99500); assay: Agonist activity at human recombinant S1P3 expressed in CHO cell membranes assessed as stimulation of [35S]-GTPgammaS binding measured after 45 mins by liquid scintillation counting assay; design: species or system Cell membrane
[2] = Pulmonary toxicity in Lewis rat assessed as elevation of BAL protein level at 1 mg/kg by advia1800 chemistry analyzer; format: organism-based; conditions: in vivo
[3] = Cardiotoxicity in human iPSC derived cardiomyocytes assessed as reduction in beating rate at 1 nM measured over 2 hrs by multi-electrode array relative to control; format: toxicity, cell-based; design: scale not given: the % may be the effect or the level left; conditions: stem cell-derived cardiomyocyte, 0.001 µM
[4] = Cardiotoxicity in human iPSC derived cardiomyocytes assessed as reduction in beating rate at 10 nM measured over 2 hrs by multi-electrode array relative to control; format: toxicity, cell-based; design: scale not given: the % may be the effect or the level left; conditions: stem cell-derived cardiomyocyte, 0.01 µM
[5] = target: T1, Sphingosine 1-phosphate receptor 4 (Homo sapiens, UniProt O95977); assay: Agonist activity at human recombinant S1P4 expressed in CHO cell membranes assessed as stimulation of [35S]-GTPgammaS binding measured after 45 mins by liquid scintillation counting assay; format: functional, Cell membrane
T1 sequence (O95977 whole entry): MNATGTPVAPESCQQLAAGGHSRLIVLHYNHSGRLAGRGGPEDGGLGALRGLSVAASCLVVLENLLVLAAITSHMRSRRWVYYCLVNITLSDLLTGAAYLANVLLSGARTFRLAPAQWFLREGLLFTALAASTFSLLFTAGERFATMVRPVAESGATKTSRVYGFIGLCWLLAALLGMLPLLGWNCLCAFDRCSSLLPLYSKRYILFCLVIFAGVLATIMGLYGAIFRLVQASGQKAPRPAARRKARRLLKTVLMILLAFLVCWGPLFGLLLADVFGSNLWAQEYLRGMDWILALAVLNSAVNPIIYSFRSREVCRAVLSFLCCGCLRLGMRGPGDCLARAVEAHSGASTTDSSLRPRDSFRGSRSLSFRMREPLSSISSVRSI

[6] = Antimigratory activity against human T cells assessed as inhibition of S1P-induced T cell migration preincubated for 10 mins followed by addition of S1P measured after 120 mins by calcein-AM dye based fluorescence analysis; format: functional
[7] = Tmax in Sprague-Dawley rat at 1 mg/kg, po or 1 mg/kg, iv; format: ADME, organism-based; conditions: in vivo
[8] = Tmax in Beagle dog at 0.3 mg/kg, po or 1 mg/kg, iv; format: ADME, organism-based, Canis lupus familiaris; conditions: in vivo
[9] = Tmax in cynomolgus monkey at 1 mg/kg, po or 1 mg/kg, iv; format: ADME, organism-based, Macaca fascicularis; conditions: in vivo
Cerebellar cortex [10] = assay: Induction of remyelination in lysophosphatidylcholine-induced demyelination in wild-type CD1 mouse organotypic cerebellar slice at 0.01 to 10 nM incubated for 7 days by immunohistochemistry based three-dimensional brain cell culture assay; format: functional, tissue-based; conditions: dose 0.01-10 nM, time 7.0 day
Cerebellar cortex [11] = assay: Induction of remyelination in lysophosphatidylcholine-induced demyelination in wild-type CD1 mouse organotypic cerebellar slice assessed as myelination index at 0.01 to 10 nM incubated for 7 days by immunohistochemistry based three-dimensional brain cell culture assay (reference value: 50%); format: functional; conditions: dose 0.01-10 nM, time 7 day
Rattus norvegicus [12] = assay: Reduction in circulating lymphocytes in Lewis rat blood at 2 mg/kg, po measured at 4 hrs by hematology analyzer based analysis; format: functional; design: scale not given: the % may be the effect or the level left
[13] = Drug metabolism in Lewis rat blood assessed as concentration of parent compound at 2 mg/kg, po measured at 4 hrs by LC-MS/MS analysis; format: ADME, organism-based; conditions: read-out: Ct
Rattus norvegicus [14] = assay: Reduction in circulating lymphocytes in Lewis rat blood at 2 mg/kg, po measured at 24 hrs by hematology analyzer based analysis; format: functional; design: scale not given: the % may be the effect or the level left
[15] = Drug metabolism in Lewis rat blood assessed as concentration of parent compound at 2 mg/kg, po measured at 24 hrs by LC-MS/MS analysis; format: ADME, organism-based; conditions: read-out: Ct
[16] = Half-life in Lewis rat at 2 mg/kg, po measured over 72 hrs by LC-MS/MS analysis; format: ADME, organism-based; conditions: in vivo
[17] = Ratio of drug metabolism in Lewis rat blood assessed as phosphate ester metabolite to parent drug at 2 mg/kg, po measured at 24 hrs by LC-MS/MS analysis; format: ADME, organism-based; conditions: in vivo
[18] = Pulmonary toxicity in Lewis rat assessed as elevation of BAL protein level at 25 mg/kg by advia1800 chemistry analyzer; format: organism-based; conditions: in vivo
Rattus norvegicus [19] = assay: Reduction in circulating lymphocytes in Lewis rat blood assessed as effective dose after oral dosing measured at 24 hrs by hematology analyzer based analysis; format: functional
Rattus norvegicus [20] = assay: Drug metabolism in Lewis rat blood assessed as concentration of phosphate ester metabolite formation at 2 mg/kg, po measured at 4 hrs by LC-MS/MS analysis; conditions: in vivo

Sequence of Sphingosine 1-phosphate receptor 3 (Q99500 whole entry): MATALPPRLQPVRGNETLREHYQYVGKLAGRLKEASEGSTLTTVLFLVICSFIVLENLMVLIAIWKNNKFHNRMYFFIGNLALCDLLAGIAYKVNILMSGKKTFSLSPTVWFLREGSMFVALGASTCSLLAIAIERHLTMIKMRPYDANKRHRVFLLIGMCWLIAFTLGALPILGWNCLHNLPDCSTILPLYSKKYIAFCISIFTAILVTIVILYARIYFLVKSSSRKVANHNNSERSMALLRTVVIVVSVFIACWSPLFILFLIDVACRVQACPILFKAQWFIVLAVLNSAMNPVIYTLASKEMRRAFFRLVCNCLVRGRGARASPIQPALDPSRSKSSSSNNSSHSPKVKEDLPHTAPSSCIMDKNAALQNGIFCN

EC50 [1]: > 1000 nM
SMILES: CCCCCC[C@@H]1CCc2cc([C@H]3CC[C@](N)(COP(=O)(O)O)C3)ccc2C1

SMILES: O=C(O)C[C@H]1CCCN(C[C@@H](O)c2ccc(-c3noc(-c4onc(-c5ccccc5)c4C(F)(F)F)n3)cc2)C1
Activity [2]: 24.3 mg/dL
Activity [3]: 36%
Activity [4]: 57%

EC50 [1]: > 1000 nM
EC50 [5]: 3.4 nM
IC50 [6]: 0.6 nM
Tmax [7]: 6 h
Tmax [8]: 6 h
Tmax [9]: 6 h
SMILES: COc1ccccc1CC[C@@H]1CCc2cc([C@H]3CC[C@](N)(COP(=O)(O)O)C3)ccc2C1
Activity [3]: 11%
Activity [4]: 27%
Activity (Cerebellar cortex [10]): Active
Activity (Cerebellar cortex [11]): 100%

concentration at 4 h [13]: 170 nM
concentration at 24 h [15]: 40 nM
half-life [16]: 7 h
Ratio [17]: 0.75
Drug metabolism (Rattus norvegicus [20]): 10 nM
SMILES: COc1ccc(CC[C@H]2CCc3cc([C@H]4CC[C@](N)(CO)C4)ccc3C2)cc1
Activity (Rattus norvegicus [12]): 33%
Activity (Rattus norvegicus [14]): 84%
Activity [18]: 24.3 mg/dL
ED50 (Rattus norvegicus [19]): 0.6 mg/kg
